Experimental data: patent US20050148627A1, “Benzopyran compounds for use in the treatment and prevention of inflammation related conditions” (priority 2003, published 2005)
Several values for one entry are separate records, joined by “and”; a condition that tells them apart may be missing. Equal values may be shown once.

Target: COX-1 (Homo sapiens, UniProt P23219)
Test: biochemical
Experimental: Evaluation of COX-1 and COX-2 Activity In Vitro
b. Assay for COX-1 and COX-2 Activity
COX activity was assayed as PGE2 formed/μg protein/time using an ELISA to detect the prostaglandin released. CHAPS-solubilized insect cell membranes containing the appropriate COX enzyme were incubated in a potassium phosphate buffer (50 mM, pH 8.0) containing epinephrine, phenol, and heme with the addition of arachidonic acid (10 μM). Compounds were pre-incubated with the enzyme for 10-20 minutes prior to the addition of arachidonic acid. […] The PGE2 formed was measured by standard ELISA technology (Cayman Chemical).

Sequence of COX-1 (P23219 24-599): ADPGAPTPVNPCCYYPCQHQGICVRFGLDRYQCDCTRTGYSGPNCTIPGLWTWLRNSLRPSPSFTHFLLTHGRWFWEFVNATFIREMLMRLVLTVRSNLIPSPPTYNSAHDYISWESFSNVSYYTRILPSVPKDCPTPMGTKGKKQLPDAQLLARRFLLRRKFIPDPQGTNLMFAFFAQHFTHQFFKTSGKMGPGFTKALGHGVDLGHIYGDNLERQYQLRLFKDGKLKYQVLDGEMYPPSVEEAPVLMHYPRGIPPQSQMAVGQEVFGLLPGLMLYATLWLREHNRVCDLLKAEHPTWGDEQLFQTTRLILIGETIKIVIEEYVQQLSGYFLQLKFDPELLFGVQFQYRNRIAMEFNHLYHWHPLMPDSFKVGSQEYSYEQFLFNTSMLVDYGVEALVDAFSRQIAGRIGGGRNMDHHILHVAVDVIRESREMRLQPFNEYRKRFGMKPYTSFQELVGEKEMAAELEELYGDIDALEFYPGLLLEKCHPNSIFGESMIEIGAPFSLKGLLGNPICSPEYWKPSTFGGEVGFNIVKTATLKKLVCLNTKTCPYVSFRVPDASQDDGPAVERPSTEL

Compound | IC50
CCCCC(C)(C)c1cc2c(cc1Cl)C=C(C(=O)O)C(C(F)(F)F)O2 (centres unmarked) [Example 110, 6-chloro-7-(1,1-dimethylpentyl)-2-(trifluoromethyl)-2H-chromene-3-carboxylic acid] | 16.1 µM and 13.1 µM
O=C(O)C1=Cc2cccc(OCc3ccccc3)c2OC1C(F)(F)F (centres unmarked) [Example 25g, 8-(benzyloxy)-2-(trifluoromethyl)-2H-chromene-3-carboxylic acid] | > 100 µM and 80.7 µM
CCC(C)(C)c1ccc2c(c1)OC(C(F)(F)F)C(C(=O)O)=C2 (centres unmarked) [Example 106, 7-tert-pentyl-2-(trifluoromethyl)-2H-chromene-3-carboxylic acid] | > 100 µM and 93 µM
CC(C)(C)CCOc1c(Cl)cc2c(c1Cl)OC(C(F)(F)F)C(C(=O)O)=C2 (centres unmarked) [Example 1d, 6,8-dichloro-7-(3,3-dimethylbutoxy)-2-(trifluoromethyl)-2H-chromene-3-carboxylic acid] | 49.2 µM
COc1cc(Cl)c2c(c1Cl)C=C(C(=O)O)C(C(F)(F)F)O2 (centres unmarked) [Example 18a, 5,8-dichloro-6-methoxy-2-(trifluoromethyl)-2H-chromene-3-carboxylic acid] | < 0.137 µM
C=C(C)C#Cc1cc(Cl)cc2c1OC(C(F)(F)F)C(C(=O)O)=C2 (centres unmarked) [Example 36, 6-chloro-8-(3-methylbut-3-en-1-ynyl)-2-(trifluoromethyl)-2H-chromene-3-carboxylic acid] | 78.5 µM and 52.3 µM
CC(C)CNc1c(Cl)cc2c(c1Cl)OC(C(F)(F)F)C(C(=O)O)=C2 (centres unmarked) [Example 38c, 6,8-dichloro-7-(isobutylamino)-2-(trifluoromethyl)-2H-chromene-3-carboxylic acid] | < 0.137 µM
Cc1c(Cl)cc(C(C)C)c2c1C=C(C(=O)O)C(C(F)(F)F)O2 (centres unmarked) [Example 6, 6-chloro-8-isopropyl-5-methyl-2-(trifluoromethyl)-2H-chromene-3-carboxylic acid] | > 100 µM and 188 µM and 194 µM
CCC#Cc1cc(OC(F)(F)F)cc2c1OC(C(F)(F)F)C(C(=O)O)=C2 (centres unmarked) [Example 21q, 8-but-1-ynyl-6-(trifluoromethoxy)-2-(trifluoromethyl)-2H-chromene-3-carboxylic acid] | 5.71 µM
Cc1cc(Cl)cc2c1O[C@H](C(F)(F)F)C(C(=O)O)=C2 (single isomer, unassigned) [Example 21t] | 32.3 µM and 7.18 µM and 6.42 µM and 8.06 µM and 18.4 µM
O=C(O)C1=Cc2cc(Br)c(Cc3ccccc3)cc2OC1C(F)(F)F (centres unmarked) [Example 41, 7-benzyl-6-bromo-2-(trifluoromethyl)-2H-chromene-3-carboxylic acid] | 14.6 µM and 12.9 µM
CC(C)(C)Oc1cc2c(cc1Cl)C=C(C(=O)O)C(C(F)(F)F)O2 (centres unmarked) [Example 2g, 7-tert-butoxy-6-chloro-2-(trifluoromethyl)-2H-chromene-3-carboxylic acid] | > 500 µM
CCC(CC)COc1cc2c(cc1Cl)C=C(C(=O)O)C(C(F)(F)F)O2 (centres unmarked) [Example 2c, 6-chloro-7-(2-ethylbutoxy)-2-(trifluoromethyl)-2H-chromene-3-carboxylic acid] | 51.6 µM
CCCCC(C)(C)c1ccc2c(c1)OC(C(F)(F)F)C(C(=O)O)=C2 (centres unmarked) [Example 109, 7-(1,1-dimethylpentyl)-2-(trifluoromethyl)-2H-chromene-3-carboxylic acid] | 0.413 µM and < 0.137 µM
O=C(O)C1=Cc2ccc(-c3ccco3)cc2OC1C(F)(F)F (centres unmarked) [Example 12, 7-(2-furyl)-2-(trifluoromethyl)-2H-chromene-3-carboxylic acid] | > 100 µM
Cc1cc(C)c(Cc2cc3c(cc2Cl)C=C(C(=O)O)C(C(F)(F)F)O3)cc1Cl (centres unmarked) [Example 9t, 6-chloro-7-(5-chloro-2,4-dimethylbenzyl)-2-(trifluoromethyl)-2H-chromene-3-carboxylic acid] | 5.5 µM

Compound | IC50
CSc1cc(Cl)cc2c1OC(C(F)(F)F)C(C(=O)O)=C2 (centres unmarked) [Example 44, 6-chloro-8-(methylthio)-2-(trifluoromethyl)-2H-chromene-3-carboxylic acid] | 0.185 µM and 0.12 µM and < 0.137 µM
O=C(O)COc1ccc2c(c1)OC(C(F)(F)F)C(C(=O)O)=C2 (centres unmarked) [Example 5g, 7-(carboxymethoxy)-2-(trifluoromethyl)-2H-chromene-3-carboxylic acid] | > 100 µM
C#Cc1cc(OC(F)(F)F)cc2c1OC(C(F)(F)F)C(C(=O)O)=C2 (centres unmarked) [Example 21f, 8-ethynyl-6-(trifluoromethoxy)-2-(trifluoromethyl)-2H-chromene-3-carboxylic acid] | < 0.137 µM and 0.0312 µM
O=C(O)C1=Cc2ccc(Cc3ccc(F)c(F)c3)cc2OC1C(F)(F)F (centres unmarked) [Example 9aa, 7-(3,4-difluorobenzyl)-2-(trifluoromethyl)-2H-chromene-3-carboxylic acid] | > 100 µM
Nc1ccc(Oc2cc3c(cc2Cl)C=C(C(=O)O)C(C(F)(F)F)O3)c(F)c1 (centres unmarked) [Example 2a, 7-(4-amino-2-fluorophenoxy)-6-chloro-2-(trifluoromethyl)-2H-chromene-3-carboxylic acid] | < 0.137 µM and 0.347 µM and 0.112 µM
CCOc1c(Cl)c(Br)c(Cl)c2c1OC(C(F)(F)F)C(C(=O)O)=C2 (centres unmarked) [Example 27, 6-bromo-5,7-dichloro-8-ethoxy-2-(trifluoromethyl)-2H-chromene-3-carboxylic acid] | > 100 µM and 198 µM
CCC(CC)COc1ccc(Cl)c2c1OC(C(F)(F)F)C(C(=O)O)=C2 (centres unmarked) [Example 23b, 5-chloro-8-(2-ethylbutoxy)-2-(trifluoromethyl)-2H-chromene-3-carboxylic acid] | 159 µM and > 100 µM
CCc1cc2c(cc1Cc1ccccc1)OC(C(F)(F)F)C(C(=O)O)=C2 (centres unmarked) [Example 42b, 7-benzyl-6-ethyl-2-(trifluoromethyl)-2H-chromene-3-carboxylic acid] | > 100 µM
C=Cc1cc(OC(F)(F)F)cc2c1OC(C(F)(F)F)C(C(=O)O)=C2 (centres unmarked) [Example 21n, 6-(trifluoromethoxy)-2-(trifluoromethyl)-8-vinyl-2H-chromene-3-carboxylic acid] | < 0.137 µM
O=C(O)C1=Cc2cc(OC(F)(F)F)cc(C#Cc3ccccc3)c2OC1C(F)(F)F (centres unmarked) [Example 21c, 8-(phenylethynyl)-6-(trifluoromethoxy)-2-(trifluoromethyl)-2H-chromene-3-carboxylic acid] | 19.2 µM and 9.68 µM
CCCCc1cc2c(cc1Cc1ccccc1)OC(C(F)(F)F)C(C(=O)O)=C2 (centres unmarked) [Example 42d, 7-benzyl-6-butyl-2-(trifluoromethyl)-2H-chromene-3-carboxylic acid] | 58.3 µM
NS(=O)(=O)c1ccc(C#Cc2cc(Cl)cc3c2OC(C(F)(F)F)C(C(=O)O)=C3)cc1 (centres unmarked) [Example 39b, 8-{[4-(aminosulfonyl)phenyl]ethynyl}-6-chloro-2-(trifluoromethyl)-2H-chromene-3-carboxylic acid] | 3.93 µM
CCCc1cc2c(cc1Cc1ccccc1)OC(C(F)(F)F)C(C(=O)O)=C2 (centres unmarked) [Example 42c, 7-benzyl-6-propyl-2-(trifluoromethyl)-2H-chromene-3-carboxylic acid] | > 100 µM
Cc1c(C)c2c(c(C)c1Cl)C=C(C(=O)O)C(C(F)(F)F)O2 (centres unmarked) [Example 104] | 6.75 µM and 12.1 µM
CCCOc1c(Cl)c(Cl)c(Cl)c2c1OC(C(F)(F)F)C(C(=O)O)=C2 (centres unmarked) [Example 28a, 5,6,7-trichloro-8-propoxy-2-(trifluoromethyl)-2H-chromene-3-carboxylic acid] | 43.6 µM and 41.3 µM
O=C(O)C1=Cc2cc(Cl)c(OCC3CCCC3)cc2OC1C(F)(F)F (centres unmarked) [Example 2d, 6-chloro-7-(cyclopentylmethoxy)-2-(trifluoromethyl)-2H-chromene-3-carboxylic acid] | 44.3 µM
